From patent US12064443B2 (priority 2021, dated 2024)

Tests used:
[1] = cited from earlier work
[2] = tested on: Cholera toxin (CTx) challenge; conditions: mouse, in vivo

Row | Molecule | Solubility in water [1] | Effect on volume of intestinal secretion upon CTx challenge [2]
1 | O=S(=O)([O-])OC[C@H]1O[C@@](COS(=O)(=O)[O-])(O[C@H]2O[C@H](COS(=O)(=O)[O-])[C@@H](OS(=O)(=O)[O-])[C@H](OS(=O)(=O)[O-])[C@H]2OS(=O)(=O)[O-])[C@@H](OS(=O)(=O)[O-])[C@@H]1OS(=O)(=O)[O-].[K+].[K+].[K+].[K+].[K+].[K+].[K+].[K+] [Sucrose octasulfate-potassium salt] | freely soluble | –
2 | Sucralfate | poorly soluble | neither polyphenol nor sucralfate reduced the volume of intestinal secretion
